Patent publication US20140378541A1, “Synthetic Epigallocatechin Gallate (EGCG) Analogs” (WAYNE STATE UNIVERSITY, priority 2011, published 2014)

What was measured:
[1] = target: T1, proteasomal chymotrypsin-like activity of MDA-MB-231 cell extracts (Homo sapiens, UniProt P28074); assay: Proteasomal chymotrypsin-like activity in MDA-MB-231 cell lysate with high COMT activity; type: biochemical; conditions: 10 μM
T1 construct: endogenous in cells; host or cells: MDA-MB-231 human breast cancer cells (ATCC), cell extract
T1 sequence (P28074 60-263): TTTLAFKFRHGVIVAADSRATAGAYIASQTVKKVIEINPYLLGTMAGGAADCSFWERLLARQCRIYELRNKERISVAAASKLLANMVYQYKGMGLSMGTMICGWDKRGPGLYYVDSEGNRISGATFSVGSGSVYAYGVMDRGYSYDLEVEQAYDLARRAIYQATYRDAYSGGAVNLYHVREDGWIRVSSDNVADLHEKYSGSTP
Description: (A) MDA-MB-231 cell extracts (5.7 μg) were incubated with different concentrations of compound 5 or 7 or EGCG for 2 hours, followed by performance of proteasomal chymotrypsin-like activity assay. EGCG was used as a control. (B) MDA-MB-231 cell extracts (5.7 μg) were pre-treated with 10 μM DNC for 20 minutes, followed by co-incubation with compound 5, or 7 or EGCG for 2 h. The proteasomal chymotrypsin-like activity was measured.
Human breast cancer MDA-MB-231 cell lysate that contains high COMT activity were treated with varying concentrations of compound 5 or 7. […] Thus, consistent with previous reports EGCG is also susceptible to methylation by COMT (H., Lu, X. Meng, C. S. Yang, Drug Metabolism and Disposition; 31; 572, 2003).

[2] = system: Human breast cancer MDA-MB-231 cells; assay: MTT cell proliferation assay in MDA-MB-231 cells; type: cell-based; conditions: indicated concentrations, 24 h, MTT
Description: Human breast cancer MDA-MB-231 cells were treated with 25 or 50 μM EGCG analogs for 24 hours, followed by MTT assay. Pro-EGCG was used as a comparison.
Human breast cancer MDA-MB-231 cells with high COMT activity were treated with 50 μM EGCG analogs for 24 hours in the absence or presence of 10 μM DNC, followed by MTT assay. Pro-EGCG was used as a comparison.
(A) EGCG analogs 23 and 30 inhibited breast cancer cell proliferation. MDA-MB-231 cells were treated with indicated concentrations of 23, 30 or metformin for 24 h, followed by a MTT assay. *, P<0.1; **, P<0.01. Columns, mean of three experiments; bars, SD. (B) EGCG analogs 23 and 30 activated AMPK at a dose-dependent manner, measured by elevated level of phosphor-AMPKα and its downstream proteins of phosphor-Raptor. […] MDA-MB-231 cells were treated with indicated concentrations of 23 or 30 for 3 h, followed by Western blot analysis with the indicated antibodies. The numbers underneath the Western results of p-AMPKα indicated normalized phosphor-AMPKα/β-actin ratios. […]
(§1) Cells were grown in a 96-well plate. Triplicate wells of cells were treated with indicated concentrations of EGCG or EGCG analogs for 24 h. After aspiration of medium, MTT (1 mg/ml) was then added to the cell cultures, followed by incubation for 3 h at 37° C. After cells were crystallized, MTT was removed and DMSO was added to dissolve the metabolized MTT product. The absorbance was then measured on a Wallac Victor3 1420 Multi-label counter at 540 nm.

[3] = system: CD44high/CD24low cell population of MDA-MB-231 cells; assay: Flow cytometry of CD44high/CD24low cell population in MDA-MB-231 cells; type: cell-based, human; conditions: 48 h
Description: The MDA-MB-231 cells were treated with the indicated concentrations of compounds 23 and 30 for 48 hours, followed by flow cytometry analysis. Columns show mean of three experiments; bars, SD; **, p<0.01; *, p<0.1.
The treated cells were washed once with phosphate-buffered saline (PBS) and then harvested with Cell Dissociation Buffer (enzyme-free, Invitrogen, cat. #13150-016). Detached cells were washed with PBS containing 1% FCS (a wash buffer), and resuspended in the wash buffer (1,000 cells/100 μl). The cells were stained with combinations of fluorochrome-conjugated monoclonal antibodies obtained from BD Biosciences (San Diego, Calif.) against human CD44 (FITC; cat. #555478) and CD24 (PE; cat. #555428) or their respective isotype controls at concentrations recommended by the manufacturer and incubated at 4° C. in the dark for 30 to 40 min. The labeled cells were washed in the wash buffer, then fixed in PBS containing 1% paraformaldehyde, and then analyzed on a FACSVantage (BD Biosciences) (Sheridan et al. Breast Cancer Res. (2006) 8, R59).
The flow cytometry analysis was performed as follows: The treated cells were washed once with phosphate-buffered saline (PBS) and then harvested with Cell Dissociation Buffer (enzyme-free, Invitrogen, cat. #13150-016). Detached cells were washed with PBS containing 1% FCS (a wash buffer), and resuspended in the wash buffer (1,000 cells/100 μl). The cell were stained with combinations of fluorochrome-conjugated monoclonal antibodies obtained from BD Biosciences (San Diego, Calif., USA) against human CD44 (FITC; cat. #555478) and CD24 (PE; cat. #555428) or their respective isotype controls at concentrations recommended by the manufacturer and incubated at 4° C. in the dark for 30 to 40 min. The labeled cells were washed in the wash buffer, then fixed in PBS containing 1% paraformaldehyde, and then analyzed on a FACSVantage (BD Biosciences) (Sheridan et al., Breast Cancer Res., 2006, 8: R59).
Metformin could selectively target cancer stem cells and reduce the CD44high/CD24low cell population in TNBC cells through activation of AMPK signaling (Hirsch et al., Cancer Research, 2009, 69: 7507-7511). To determine whether EGCG analogs 23 and 30 can reduce the stem cell population in the breast cancer cells, the human breast cancer MDA-MB-231 cells were treated with different concentrations of compounds 23 and 30 for 48 hours. The treated cells were stained with special antibodies against human CD44 (FITC), CD24 (PE) or their respective isotype controls, followed by washing, fixing and analysed by flow cytometry.

[4] = system: human multiple myeloma ARP cells; assay: MTT assay in multiple myeloma ARP cells, alone or with Velcade; type: cell-based; conditions: 20 μM plus varying doses of Velcade, 48 h
Description: The cells were treated with Velcade™ alone or with 20 μM of compounds 5, 7 and 23 or in combination with varying doses of Velcade™ for 48 hrs, followed by a MTT assay.
Human multiple myeloma cells (Arp and Opm1) cells, kindly provided by Dr. Ramesh Batchu (Wayne State University), were grown in RPMI-1640 medium supplemented with 10% FBS, 100 units/ml of penicillin, and 100 μg/ml of streptomycin. Cells were maintained at 37° C. in 5% CO2 (Mujtaba T, et al., Int J Mol Med. (2012) 29(1):102-6).
as §1

## O=C(O[C@@H]1Cc2c(O)cc(O)cc2O[C@@H]1c1cc(O)c(O)c(O)c1)c1cc(O)c(O)c(O)c1 [Compound 1, (−)-Epigallocatechin gallate, reference compound]
[1]
  inhibition at 10 µM: ~22%

## O=C(O[C@H]1Cc2ccccc2C[C@H]1OC(=O)c1cc(O)c(Br)c(O)c1)c1cc(O)c(Br)c(O)c1 [Compound 23]
[2]
  inhibition of cell proliferation (in words): inhibit cell proliferation in a dose-dependent manner
[3]
  reduction of CD44high/CD24low cell population (in words): can reduce the CD44high/CD24low cell population
[4]
  effect on cell proliferation when combined with Velcade: synergistic inhibitory effect

## Nc1ccc(C(=O)O[C@H]2Cc3ccccc3C[C@H]2OC(=O)c2ccc(N)cc2)cc1 [Compound 30]
[2]
  inhibition of cell proliferation (in words): inhibit cell proliferation in a dose-dependent manner
[3]; 10 μM
  decrease of the CD44high/CD24low population: 43.3%
[3]; 20 μM
  decrease of the CD44high/CD24low population: 71.7%
[3]
  reduction of CD44high/CD24low cell population (in words): can reduce the CD44high/CD24low cell population
